# Values quoted from earlier work, collected in patent US6972278B2, “Laundry detergent gel with suspended particles” (Unilever Home & Personal Care USA division of Conopco, Inc., priority 2004, dated 2005).
# Conditions: by fatty acid chain length; cited from Langmuir, Vol 16, pp 172-177, 2000
row,Measured pKa value,Compound
1,~7.5,CCCCCCCCCCCC(=O)O [Example 12]
2,8.1~8.2,CCCCCCCCCCCCCC(=O)O [Example 14]
3,8.6~8.8,CCCCCCCCCCCCCCCC(=O)O [Example 16]
4,7.1~7.3,CCCCCCCCCC(=O)O [Example 10]
5,6.3~6.5,CCCCCCCC(=O)O [Example 8]

# Same assay, conditions: by fatty acid chain length; cited from Proc. R. Soc. London, A133, 140, 1931
row,Measured pKa value,Compound
1,8.5,CCCCCCCCCCCCCCCC(=O)O [Example 16]
